Source: patent US20120034193A1, “TREATMENT OF NEUROTROPHIC FACTOR MEDIATED DISORDERS” (priority 2009, published 2012)

Experiments:
Experiment in all cases: Binding assay
Conditions in all cases: smilagenin 1 μM
Neuromedin U MNU2 = Neuromedin U MNU2 (Homo sapiens, UniProt Q9GZQ4)
Procedure: (§1) The receptor binding was investigated using the following method: Sarsasapogenin was incubated with tissue or cell homogenate that expressed the receptor of interest and a known concentration a radiolabelled compound with affinity for the receptor of interest. After the incubation period the non-bound radiolabelled compound was removed and the amount of specific binding was quantified. The amount of specific binding in the presence and absence of sarsasapogenin were compared and the percent inhibition of the binding of the radiolabelled compound by sarsasapogenin was calculated. The source of the receptor, the incubation conditions, the radiolabelled compound used varied depending on each specific assay.
(§2) Using the same methods as described above, the binding of smilagenin (1 μM) to the receptors listed in Table 2 below, and the effect of smilagenin on the activity of the enzymes listed in Table 2 below, were investigated.

[1] = molecular target: 5-Hydroxytryptamine, 5-HT2C (Homo sapiens, UniProt P28335)
Procedure: as §1, §2

Somatostatin sst5 = Somatostatin sst5 (Homo sapiens, UniProt P35346)
Procedure: as §1, §2

[2] = molecular target: N-Formyl Peptide Receptor FPR1 (Homo sapiens, UniProt P21462)
Procedure: as §1, §2

[3] = molecular target: T1, Transporter, 5-hydroxytryptamine (SERT) (Homo sapiens, UniProt P31645)
T1 construct: host or cells: tissue or cell homogenate, not specified
Procedure: as §1, §2

Dopamine D5 = Dopamine D5 (Homo sapiens, UniProt P21918)
Procedure: as §1, §2

[4] = molecular target: T2, Growth Hormone Secretagogue (GHS, Ghrelin) (Homo sapiens, UniProt Q92847)
T2 construct: host or cells: tissue or cell homogenate (not specified)
Procedure: as §1, §2

Melanocortin MC3 = Melanocortin MC3 (Homo sapiens, UniProt P41968)
Procedure: as §1, §2

[5] = molecular target: Cholecystokinin CCK1 (CCKA) (Homo sapiens, UniProt P32238)
Procedure: as §1, §2

Leukotriene, BLT (LTB4) = Leukotriene, BLT (LTB4) (Homo sapiens, UniProt Q15722)
Procedure: as §1, §2

APJ = APJ (Homo sapiens, UniProt P35414)
Procedure: as §1, §2

Tachykinin NK2 = Tachykinin NK2 (Homo sapiens, UniProt P21452)
Procedure: as §1, §2

Somatostatin sst4 = Somatostatin sst4 (Homo sapiens, UniProt P31391)
Procedure: as §1, §2

[6] = molecular target: Leukotriene, Cysteinyl CysLT2 (Homo sapiens, UniProt Q9NS75)
Procedure: as §1, §2

Melanocortin MC4 = Melanocortin MC4 (Homo sapiens, UniProt P32245)
Procedure: as §1, §2

Tachykinin NK1 = Tachykinin NK1 (Homo sapiens, UniProt P25103)
Procedure: as §1, §2

Adrenergic β3 = Adrenergic β3 (Homo sapiens, UniProt P13945)
Procedure: as §1, §2

Vasopressin V2 = molecular target: T3, Vasopressin V2 (Homo sapiens, UniProt P30518)
T3 construct: host or cells: tissue or cell homogenate, not specified
Procedure: as §1, §2

Vanilloid = molecular target: T4, Vanilloid (Rattus norvegicus, UniProt O35433)
T4 construct: host or cells: tissue or cell homogenate, not specified
Procedure: as §1, §2

Muscarinic M3 = molecular target: T5, Muscarinic M3 (Homo sapiens, UniProt P20309)
T5 construct: host or cells: tissue or cell homogenate, not specified
Procedure: as §1, §2

Vitamin D3 = molecular target: T6, Vitamin D3 (Homo sapiens, UniProt P11473)
T6 construct: host or cells: tissue or cell homogenate, not specified
Procedure: as §1, §2

Muscarinic M4 = molecular target: T7, Muscarinic M4 (Homo sapiens, UniProt P08173)
T7 construct: host or cells: tissue or cell homogenate, not specified
Procedure: as §1, §2

Adrenergic β2 = Adrenergic β2 (Homo sapiens, UniProt P07550)
Procedure: as §1, §2

Bombesin BB3 = Bombesin BB3 (Homo sapiens, UniProt P32247)
Procedure: as §1, §2

Leptin = Leptin (Mus musculus, UniProt P48356)
Procedure: as §1, §2

Prostanoid EP2 = Prostanoid EP2 (Homo sapiens, UniProt P43116)
Procedure: as §1, §2

Urotensin II = molecular target: T8, Urotensin II (Homo sapiens, UniProt Q9UKP6)
T8 construct: host or cells: tissue or cell homogenate, not specified
Procedure: as §1, §2

Adensonine A1 = Adensonine A1 (Homo sapiens, UniProt P30542)
Procedure: as §1, §2

Bradykinin B1 = Bradykinin B1 (Homo sapiens, UniProt P46663)
Procedure: as §1, §2

[7] = molecular target: T9, Epidermal Growth Factor (EGF) (Homo sapiens, UniProt P00533)
T9 construct: host or cells: tissue or cell homogenate (not specified)
Procedure: as §1, §2

Muscarinic M5 = molecular target: T10, Muscarinic M5 (Homo sapiens, UniProt P08912)
T10 construct: host or cells: tissue or cell homogenate, not specified
Procedure: as §1, §2

Glutamate, NMDA, Glycine = molecular target: T11, Glutamate, NMDA, Glycine (Rattus norvegicus, UniProt P35439)
T11 construct: host or cells: tissue or cell homogenate (not specified)
Procedure: as §1, §2

GABAB1A = molecular target: T12, GABAB1A (Homo sapiens, UniProt Q9UBS5)
T12 construct: host or cells: tissue or cell homogenate (not specified)
Procedure: as §1, §2

Interleukin IL-1 = Interleukin IL-1 (Mus musculus, UniProt P13504)
Procedure: as §1, §2

Histamine H2 = molecular target: T13, Histamine H2 (Homo sapiens, UniProt P25021)
T13 construct: host or cells: tissue or cell homogenate (not specified)
Procedure: as §1, §2

Vasopressin V1B = molecular target: T14, Vasopressin V1B (Homo sapiens, UniProt P47901)
T14 construct: host or cells: tissue or cell homogenate, not specified
Procedure: as §1, §2

Chain of Tachykinin NK2 (P21452 whole entry): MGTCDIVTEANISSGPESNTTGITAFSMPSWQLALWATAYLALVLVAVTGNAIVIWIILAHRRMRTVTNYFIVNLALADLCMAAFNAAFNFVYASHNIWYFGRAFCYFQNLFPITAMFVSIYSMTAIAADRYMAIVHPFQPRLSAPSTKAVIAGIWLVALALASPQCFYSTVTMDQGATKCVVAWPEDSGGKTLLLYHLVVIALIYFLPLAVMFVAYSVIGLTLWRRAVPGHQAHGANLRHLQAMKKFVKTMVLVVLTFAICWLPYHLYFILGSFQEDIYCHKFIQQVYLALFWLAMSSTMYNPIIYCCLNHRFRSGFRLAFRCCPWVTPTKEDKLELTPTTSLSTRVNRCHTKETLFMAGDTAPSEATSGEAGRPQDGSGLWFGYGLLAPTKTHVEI
Chain of Leukotriene, Cysteinyl CysLT2 (Q9NS75 whole entry): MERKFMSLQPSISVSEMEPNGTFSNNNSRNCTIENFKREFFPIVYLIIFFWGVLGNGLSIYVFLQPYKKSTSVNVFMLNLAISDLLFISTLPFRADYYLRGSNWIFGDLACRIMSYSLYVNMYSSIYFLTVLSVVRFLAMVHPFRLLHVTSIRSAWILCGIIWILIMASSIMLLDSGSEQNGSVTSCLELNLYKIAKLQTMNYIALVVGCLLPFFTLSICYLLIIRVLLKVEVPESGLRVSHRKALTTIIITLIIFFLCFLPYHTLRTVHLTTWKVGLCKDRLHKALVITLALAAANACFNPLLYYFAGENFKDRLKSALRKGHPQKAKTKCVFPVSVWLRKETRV
T7 sequence (P08173 whole entry): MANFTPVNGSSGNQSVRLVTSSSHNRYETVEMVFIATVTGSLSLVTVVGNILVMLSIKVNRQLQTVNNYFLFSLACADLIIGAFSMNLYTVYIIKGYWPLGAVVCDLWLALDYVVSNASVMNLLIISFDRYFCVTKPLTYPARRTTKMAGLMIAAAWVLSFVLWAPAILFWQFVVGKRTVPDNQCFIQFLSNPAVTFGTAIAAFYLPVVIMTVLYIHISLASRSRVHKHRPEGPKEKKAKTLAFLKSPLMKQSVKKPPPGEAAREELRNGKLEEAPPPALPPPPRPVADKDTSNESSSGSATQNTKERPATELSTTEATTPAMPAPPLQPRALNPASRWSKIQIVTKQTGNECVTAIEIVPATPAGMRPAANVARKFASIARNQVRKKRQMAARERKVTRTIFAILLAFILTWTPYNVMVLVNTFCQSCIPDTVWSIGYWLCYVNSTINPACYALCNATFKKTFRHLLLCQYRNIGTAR
Chain of Dopamine D5 (P21918 whole entry): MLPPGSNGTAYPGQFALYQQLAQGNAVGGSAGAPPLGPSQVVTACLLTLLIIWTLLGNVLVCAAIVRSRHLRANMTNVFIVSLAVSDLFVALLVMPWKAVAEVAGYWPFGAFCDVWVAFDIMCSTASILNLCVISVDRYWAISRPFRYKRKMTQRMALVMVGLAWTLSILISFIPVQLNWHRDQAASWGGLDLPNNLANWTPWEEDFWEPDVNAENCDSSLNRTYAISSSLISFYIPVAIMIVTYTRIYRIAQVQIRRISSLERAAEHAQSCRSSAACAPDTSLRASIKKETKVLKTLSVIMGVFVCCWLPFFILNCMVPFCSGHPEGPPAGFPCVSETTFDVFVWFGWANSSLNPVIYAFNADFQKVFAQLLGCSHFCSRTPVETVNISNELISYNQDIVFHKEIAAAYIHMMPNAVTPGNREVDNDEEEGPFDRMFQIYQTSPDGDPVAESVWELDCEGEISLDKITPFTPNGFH
Chain of Melanocortin MC4 (P32245 whole entry): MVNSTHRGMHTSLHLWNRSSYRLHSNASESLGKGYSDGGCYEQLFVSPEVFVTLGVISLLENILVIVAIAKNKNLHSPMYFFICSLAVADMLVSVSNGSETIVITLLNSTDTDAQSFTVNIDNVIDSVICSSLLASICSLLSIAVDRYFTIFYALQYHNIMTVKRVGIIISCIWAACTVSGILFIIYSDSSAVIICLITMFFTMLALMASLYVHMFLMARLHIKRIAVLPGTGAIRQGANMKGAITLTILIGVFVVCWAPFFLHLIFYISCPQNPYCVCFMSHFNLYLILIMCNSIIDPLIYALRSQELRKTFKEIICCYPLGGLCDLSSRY
Chain of Leukotriene, BLT (LTB4) (Q15722 whole entry): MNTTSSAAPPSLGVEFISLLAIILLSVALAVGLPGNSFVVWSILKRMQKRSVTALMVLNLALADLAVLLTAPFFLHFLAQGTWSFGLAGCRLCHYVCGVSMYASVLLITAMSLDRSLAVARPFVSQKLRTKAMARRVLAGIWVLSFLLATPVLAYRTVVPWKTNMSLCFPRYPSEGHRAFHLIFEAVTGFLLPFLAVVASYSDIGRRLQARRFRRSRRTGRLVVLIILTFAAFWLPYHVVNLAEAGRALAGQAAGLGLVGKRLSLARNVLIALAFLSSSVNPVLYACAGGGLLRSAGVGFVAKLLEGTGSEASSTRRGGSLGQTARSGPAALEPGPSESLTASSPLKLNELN
Chain of Neuromedin U MNU2 (Q9GZQ4 whole entry): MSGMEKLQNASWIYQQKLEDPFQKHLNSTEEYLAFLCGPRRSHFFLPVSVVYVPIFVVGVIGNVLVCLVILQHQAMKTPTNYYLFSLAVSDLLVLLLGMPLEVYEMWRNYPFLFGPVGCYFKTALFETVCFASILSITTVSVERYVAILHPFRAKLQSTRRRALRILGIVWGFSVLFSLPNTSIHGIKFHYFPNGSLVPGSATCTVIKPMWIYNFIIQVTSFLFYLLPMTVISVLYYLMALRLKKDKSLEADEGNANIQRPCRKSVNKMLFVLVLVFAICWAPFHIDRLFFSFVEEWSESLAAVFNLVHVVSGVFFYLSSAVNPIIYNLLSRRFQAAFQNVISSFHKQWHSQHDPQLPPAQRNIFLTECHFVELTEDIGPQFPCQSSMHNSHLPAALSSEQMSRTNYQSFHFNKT
Chain of Adrenergic β3 (P13945 whole entry): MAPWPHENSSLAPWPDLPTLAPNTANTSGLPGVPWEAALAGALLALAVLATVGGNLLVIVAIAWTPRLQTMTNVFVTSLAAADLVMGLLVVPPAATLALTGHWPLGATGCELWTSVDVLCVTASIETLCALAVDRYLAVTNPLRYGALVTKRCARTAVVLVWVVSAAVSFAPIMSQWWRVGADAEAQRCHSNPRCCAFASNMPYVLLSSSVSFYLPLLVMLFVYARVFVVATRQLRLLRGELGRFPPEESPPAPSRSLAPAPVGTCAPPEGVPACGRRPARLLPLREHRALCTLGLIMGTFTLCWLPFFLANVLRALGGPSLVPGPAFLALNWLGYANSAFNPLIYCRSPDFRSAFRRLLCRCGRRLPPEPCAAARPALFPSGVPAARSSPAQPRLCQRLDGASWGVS
T6 sequence (P11473 whole entry): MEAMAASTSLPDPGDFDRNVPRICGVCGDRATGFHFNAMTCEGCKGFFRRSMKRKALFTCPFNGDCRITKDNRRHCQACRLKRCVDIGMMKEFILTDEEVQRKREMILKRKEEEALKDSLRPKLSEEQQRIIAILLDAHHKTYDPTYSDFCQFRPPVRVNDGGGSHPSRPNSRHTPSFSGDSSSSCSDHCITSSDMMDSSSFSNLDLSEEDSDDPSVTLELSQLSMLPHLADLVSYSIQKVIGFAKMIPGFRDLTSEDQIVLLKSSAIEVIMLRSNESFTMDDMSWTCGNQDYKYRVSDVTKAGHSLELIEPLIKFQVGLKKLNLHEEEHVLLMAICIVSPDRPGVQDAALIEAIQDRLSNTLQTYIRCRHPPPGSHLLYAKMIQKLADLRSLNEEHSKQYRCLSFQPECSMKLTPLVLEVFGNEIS
T9 sequence (P00533 25-1210): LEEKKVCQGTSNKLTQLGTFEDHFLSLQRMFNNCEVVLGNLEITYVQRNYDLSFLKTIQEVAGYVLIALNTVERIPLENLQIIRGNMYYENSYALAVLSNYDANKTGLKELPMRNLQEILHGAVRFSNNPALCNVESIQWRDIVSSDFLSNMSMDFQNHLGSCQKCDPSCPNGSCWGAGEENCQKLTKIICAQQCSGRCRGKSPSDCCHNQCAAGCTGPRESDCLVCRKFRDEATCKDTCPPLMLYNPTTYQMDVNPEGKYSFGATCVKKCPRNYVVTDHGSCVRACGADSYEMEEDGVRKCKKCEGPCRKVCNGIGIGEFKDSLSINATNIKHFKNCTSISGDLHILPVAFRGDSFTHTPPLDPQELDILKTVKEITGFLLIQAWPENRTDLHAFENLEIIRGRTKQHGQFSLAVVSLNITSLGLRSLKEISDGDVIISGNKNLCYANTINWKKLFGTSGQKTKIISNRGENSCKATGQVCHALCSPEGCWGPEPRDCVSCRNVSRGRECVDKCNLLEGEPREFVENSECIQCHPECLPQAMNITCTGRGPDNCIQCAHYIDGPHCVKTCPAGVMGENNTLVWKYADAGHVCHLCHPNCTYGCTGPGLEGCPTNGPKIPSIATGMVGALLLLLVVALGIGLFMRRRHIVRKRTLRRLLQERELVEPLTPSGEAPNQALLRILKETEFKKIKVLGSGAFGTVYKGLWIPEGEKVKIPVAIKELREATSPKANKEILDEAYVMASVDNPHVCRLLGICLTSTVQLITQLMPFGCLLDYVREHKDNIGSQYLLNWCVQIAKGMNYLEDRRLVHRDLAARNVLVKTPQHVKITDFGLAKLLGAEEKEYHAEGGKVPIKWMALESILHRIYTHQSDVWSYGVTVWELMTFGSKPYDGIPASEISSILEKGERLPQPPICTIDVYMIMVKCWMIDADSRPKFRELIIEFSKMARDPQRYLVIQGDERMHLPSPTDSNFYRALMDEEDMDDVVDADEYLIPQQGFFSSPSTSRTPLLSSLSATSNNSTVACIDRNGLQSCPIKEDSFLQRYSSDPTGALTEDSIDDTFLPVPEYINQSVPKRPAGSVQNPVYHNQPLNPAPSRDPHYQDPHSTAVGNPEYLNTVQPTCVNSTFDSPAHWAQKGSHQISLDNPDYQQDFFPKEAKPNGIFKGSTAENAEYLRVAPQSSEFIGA

C[C@@H]1CC[C@@]2(OC1)O[C@H]1C[C@H]3[C@@H]4CC[C@@H]5C[C@@H](O)CC[C@]5(C)[C@H]4CC[C@]3(C)[C@H]1[C@@H]2C [Smilagenin, smilagenin]
Effect (%) (Neuromedin U MNU2): NS (NS = No significant response. Significance was taken as ≧30% stimulation or inhibition)
Effect (%) [1]: NS (NS = No significant response. Significance was taken as ≧30% stimulation or inhibition)
Effect (%) (Somatostatin sst5): NS (NS = No significant response. Significance was taken as ≧30% stimulation or inhibition)
Effect (%) [2]: NS (NS = No significant response. Significance was taken as ≧30% stimulation or inhibition)
Effect (%) [3]: NS (NS = No significant response. Significance was taken as ≧30% stimulation or inhibition)
Effect (%) (Dopamine D5): NS (NS = No significant response. Significance was taken as ≧30% stimulation or inhibition)
Effect (%) [4]: NS (NS = No significant response. Significance was taken as ≧30% stimulation or inhibition)
Effect (%) (Melanocortin MC3): NS (NS = No significant response. Significance was taken as ≧30% stimulation or inhibition)
Effect (%) [5]: NS (NS = No significant response. Significance was taken as ≧30% stimulation or inhibition)
Effect (%) (Leukotriene, BLT (LTB4)): NS (NS = No significant response. Significance was taken as ≧30% stimulation or inhibition)
Effect (%) (APJ): NS (NS = No significant response. Significance was taken as ≧30% stimulation or inhibition)
Effect (%) (Tachykinin NK2): NS (NS = No significant response. Significance was taken as ≧30% stimulation or inhibition)
Effect (%) (Somatostatin sst4): NS (NS = No significant response. Significance was taken as ≧30% stimulation or inhibition)
Effect (%) [6]: NS (NS = No significant response. Significance was taken as ≧30% stimulation or inhibition)
Effect (%) (Melanocortin MC4): NS (NS = No significant response. Significance was taken as ≧30% stimulation or inhibition)
Effect (%) (Tachykinin NK1): NS (NS = No significant response. Significance was taken as ≧30% stimulation or inhibition)
Effect (%) (Adrenergic β3): NS (NS = No significant response. Significance was taken as ≧30% stimulation or inhibition)
Effect (%) (Vasopressin V2): NS (NS = No significant response. Significance was taken as ≧30% stimulation or inhibition)
Effect (%) (Vanilloid): NS (NS = No significant response. Significance was taken as ≧30% stimulation or inhibition)
Effect (%) (Muscarinic M3): NS (NS = No significant response. Significance was taken as ≧30% stimulation or inhibition)
Effect (%) (Vitamin D3): NS (NS = No significant response. Significance was taken as ≧30% stimulation or inhibition)
Effect (%) (Muscarinic M4): NS (NS = No significant response. Significance was taken as ≧30% stimulation or inhibition)
Effect (%) (Adrenergic β2): NS (NS = No significant response. Significance was taken as ≧30% stimulation or inhibition)
Effect (%) (Bombesin BB3): NS (NS = No significant response. Significance was taken as ≧30% stimulation or inhibition)
Effect (%) (Leptin): NS (NS = No significant response. Significance was taken as ≧30% stimulation or inhibition)
Effect (%) (Prostanoid EP2): NS (NS = No significant response. Significance was taken as ≧30% stimulation or inhibition)
Effect (%) (Urotensin II): NS (NS = No significant response. Significance was taken as ≧30% stimulation or inhibition)
Effect (%) (Adensonine A1): NS (NS = No significant response. Significance was taken as ≧30% stimulation or inhibition)
Effect (%) (Bradykinin B1): NS (NS = No significant response. Significance was taken as ≧30% stimulation or inhibition)
Effect (%) [7]: NS (NS = No significant response. Significance was taken as ≧30% stimulation or inhibition)
Effect (%) (Muscarinic M5): NS (NS = No significant response. Significance was taken as ≧30% stimulation or inhibition)
Effect (%) (Glutamate, NMDA, Glycine): NS (NS = No significant response. Significance was taken as ≧30% stimulation or inhibition)
Effect (%) (GABAB1A): NS (NS = No significant response. Significance was taken as ≧30% stimulation or inhibition)
Effect (%) (Interleukin IL-1): NS (NS = No significant response. Significance was taken as ≧30% stimulation or inhibition)
Effect (%) (Histamine H2): NS (NS = No significant response. Significance was taken as ≧30% stimulation or inhibition)
Effect (%) (Vasopressin V1B): NS (NS = No significant response. Significance was taken as ≧30% stimulation or inhibition)
